Columns and labels:
Type in all cases: cell-based, Arabidopsis thaliana
[1] = system: stomata (guard cells) in epidermal peels; assay: Stomatal aperture opening studies, epidermal peels in the dark; settings: for effect on stomatal aperture: darkness, 1 h
Protocol: (§1) Stomatal Aperture Studies: Arabidopsis thaliana ecotypes Columbia (Col-0) and Wassilewskija (WS) were used as wild types in this study. Col-0, nia1nia2, atrbohD/F, R2-4A and WS plants were all grown on autoclaved Metro-Mix 200 soil at 22° C. under continuous light. The mutant seeds nia1nia2 nia2-5; CS 2356; Col-0 background) were obtained from Dr. N. M. Crawford (University of California at San Diego) and the mutant seeds atrbohD/F (Col-0 background) were obtained from Dr. J. M. Kwak (University of Maryland). The RNAi mutant apyrase line (R2-4A) is in WS background, so WS ecotype was used as the control wild type for these studies. Leaves from 2 to 3 week old Col-0 plants, or R2-4A and WS plants treated with 4 μM estradiol for 1 week after development of mature basal leaves were used for peel and whole leaf studies. Plants were placed in the dark and watered 24 h before an study. For opening studies, plants were used immediately after 24 h dark treatment and all treatments were done in the dark except for the light treated leaves or peels, thus the control stomata are dark controls. For closure studies, plants were placed in the light 3 h before an study to induce stomatal opening and all treatments were done in the light, thus the control stomata are light controls. For peel studies, epidermal peels were made from the underside of the leaf and treatments were applied to the peels for 1 h. For whole leaf studies, leaves were removed and treatments were applied for 2 h. For each treatment, about 3 or 4 peels collected from different leaves or 3 or 4 different leaves of at least two different plants were floated with the abaxial side up in petri dishes on 3 mL of Arabidopsis leaf buffer consisting of 10 mM KCl, 25 mM MES pH 6.15 (Melotto et al., 2006) and the chemical being tested. For whole leaf studies peels were collected after the treatment.
(§2) For studies testing the effects of ATPγS, ADPγS, AMPS, RB2, and PPADS (Sigma, St. Louis, Mo., USA) 20 mM stocks were made by dissolving the compounds in de-ionized water. For studies testing the effects of apyrase inhibitors, 7.5 mg/mL of NGXT191 and of inhibitor #13 (Windsor et al., 2002) was dissolved in dimethyl sulfoxide (DMSO) and then applied at a dilution of […] for a final concentration of 0.1% DMSO. ABA (Sigma, St. Louis, Mo., USA) was dissolved in ethanol in 10 mM stocks and then applied at a dilution of 1:1000. The stocks were stored at −20° C. while not in use. The production of the anti-AtAPY1 antibodies used is described by Steinebrunner et al. (2003). The crude immune and pre-immune sera were purified using protein A-Sepharose following the protocol described by Martin (1982) with the slight modification that the buffers used were azide-free. The protein-A purified sera were both used at a 1:1000 dilution in leaf stomatal aperture studies. The concentration of the immune and pre-immune sera, determined by Bradford assay (Bio-Rad), was 10.2 μg/mL and 7.7 μg/mL, respectively.
(§3) After treatment, photos of stomata were taken using a light microscope at 20×. Stomatal aperture width was measured using the image processing software ImageJ. Typically, photos were taken of 70 to 90 stomata per treatment of which only 50 stomata were measured for each treatment. For each treatment the ratio of closed stomata (width of 0) to open stomata was determined for all stomata imaged and this ratio was maintained in the 50 stomata that were measured for each treatment. Data shown uses apertures determined as width/length, however data in all studies also obtained as width only and generally width/length and width only data are in agreement with each other. Statistical significance of the measurements for the treatments was determined using the Student's t test in Microsoft Excel.

[2] = system: stomata of nia1nia2 mutant leaves; assay: Stomatal closing studies with whole leaves of nia1nia2 mutant; settings: 200 ATPγS
Protocol: (§4) Stomatal Aperture Studies: Arabidopsis thaliana ecotypes Columbia (Col-0) and Wassilewskija (WS) were used as wild types in this study. Col-0, nia1nia2, atrbohD/F, R2-4A and WS plants were all grown on autoclaved Metro-Mix 200 soil at 22° C. under continuous light. The mutant seeds nia1nia2 nia2-5; CS 2356; Col-0 background) were obtained from Dr. N. M. Crawford (University of California at San Diego) and the mutant seeds atrbohD/F (Col-0 background) were obtained from Dr. J. M. Kwak (University of Maryland). The RNAi mutant apyrase line (R2-4A) is in WS background, so WS ecotype was used as the control wild type for these studies. […]
as §3, with “Statistical significance of the measurements for the treatments was determined using the Student's t test in Microsoft Excel.” left out

NO in guard cells = assay: Detection and quantification of NO (DAF-2 DA fluorescence); settings: 200 μM, leaf epidermal tissue, after 45 min
Protocol: (§5) Detection and Quantification of H2O2 and NO: Col-0 plants were grown on soil for 2 to 4 weeks under continuous light at 21° C. Plants were placed in the dark for 24 h to ensure closure and then transferred to the light for 1 h. After 1 h in the light, mature basal leaves were excised and blended in a Waring blender on the low setting for approximately 10 s to isolate epidermal tissues, and the tissues were placed in 3 mL of 30 mM KCl, 10 mM Mes-KOH, pH 6.16 buffer in light for 2 h (Pei et al., 2000; Murata et al., 2001). DAF-2 DA and H2DCFDA were dissolved in DMSO to produce 5 mM and 10 mM stock solutions, respectively, and these were stored at −20° C. in 30 μL, aliquots. Fifty μM H2DCFDA or 15 μM DAF-2 DA was added to the medium in the dark, and after 30 min, 10 μM ABA, 200 μM ATPγS, or buffer (ATP control) was also added to the medium in the dark for 30 min. Peels were then rinsed by decanting the treatment solution and adding 3 mL fresh leaf buffer to the peels. Peels were rinsed twice as described. A peel from each of the three treatments (ABA, ATPγS and buffer) were placed on the same microscope slide and observed sequentially. A second study was staggered 30 to 45 min after the first by loading the H2DCFDA or DAF-2 DA dye to new peels 30 to 45 min after the first round of dye was added. Confocal laser scanning microscopy (CLSM) was performed with a Leica SP2 AOBS confocal microscope (Leica Microsystems, Bannockburn, Ill., USA). Laser power was set at 15%, with an excitation of 488 nm and an emission of 525 nm. A series of 0.5 μm optical sections with average intensity projection along the z axis were collected and made into one 2D image with greater focal depth. All images were obtained with the same software scanning settings including detector gain and laser intensity settings.

[3] = system: stomata of atrbohD/F mutant leaves; assay: Stomatal closing studies with whole leaves of atrbohD/F mutant; settings: 200 ATPγS
Protocol: as §4
as §3, with “Statistical significance of the measurements for the treatments was determined using the Student's t test in Microsoft Excel.” left out

H2O2 in guard cells = assay: Detection and quantification of H2O2 (H2DCFDA fluorescence); settings: 200 μM, leaf epidermal tissue, after 30 min
Protocol: as §5

[4] = system: stomata (guard cells) in epidermal peels; assay: Stomatal aperture closure studies, epidermal peels in the light; settings: for effect on stomatal aperture: epidermal peels, light, 1 h
Protocol: as §1, §2, §3

[5] = system: stomata (guard cells) in whole leaves; assay: Stomatal aperture closure studies, whole leaves in the light
Protocol: as §1, §2, §3

[6] = system: stomata (guard cells) in whole leaves; assay: Stomatal aperture opening studies, whole leaves in the dark; settings: whole leaf studies (data not shown)
Protocol: as §1
as §2, with “The crude immune and pre-immune sera were purified using protein A-Sepharose following the protocol described by Martin (1982) with the slight modification that the buffers used were azide-free. The protein-A purified sera were both used at a 1:1000 dilution in leaf stomatal aperture studies.” left out
as §3

Nc1ncnc2c1ncn2[C@@H]1O[C@H](COP(=O)(O)OP(=O)(O)OP(O)(O)=S)[C@@H](O)[C@H]1O [ATPγS]
effect on stomatal aperture ([1]; 5 μM): induced opening
effect on stomatal aperture ([1]; 15 μM): induced opening
mean stomatal aperture compared with light treatment ([1]; low concentrations (5 and 15 μM)): smaller than the aperture induced by light treatment
effect on stomatal aperture [2]: no effect on stomatal aperture
increase in DAF-2 DA fluorescence in guard cells (NO in guard cells): 2.5 fold
effect on stomatal aperture [3]: no effect on stomatal aperture
increase in H2DCFDA fluorescence in guard cells (H2O2 in guard cells): 3 fold
effect on stomatal aperture ([4]; 150 μM): no statistically significant effect
mean stomatal aperture after closure compared with ABA ([4]; 200 μM versus 10 μM ABA): statistically the same as the aperture induced by treatment with 10 μM ABA
effect on stomatal aperture ([4]; 200 μM): induced stomatal closure
effect on stomatal aperture ([4]; 250 μM): induced stomatal closure
effect on stomatal aperture ([5]; 200 μM, leaves, light, 2 h): induced stomatal closure
threshold for nucleotide-induced stomatal closure ([5]; whole leaf studies, compared with peel studies (150 to 200 μM; not shown)): same threshold
threshold concentration for stomatal opening [6]: higher than 5 μM

Source: patent US20140123342A1, “Regulation of Stomatal Apertures by Apyrases and Extracellular Nucleotides” (BOARD OF REGENTS, THE UNIVERSITY OF TEXAS SYSTEM, priority 2011, published 2014)
